Results as given in patent US11186587B2, “Compound as ACC inhibitor and use thereof” (NANJING SANHOME PHARMACEUTICAL CO., LTD., priority 2017, dated 2021).
Read-outs that look alike come from different tables or passages of the source.

Experiments:
[1] = Evaluation of compound distribution in rat liver; type: in vivo; details: male SD rats, single oral 3 mg/kg, 0.25 h after administration
Method: An acclimation period of 2-3 days was given before the experiments. The rats were fasted for 8-12 h before administration, supplied with water 2 h after administration and foods 4 h after administration.
6 mg of the test compound (based on free base) was weighed and added to 20 mL of ethanol-PEG400-saline (10:30:60). The mixture was vortexed for 2 min, and sonicated for 3 min, and then used to prepare a solution of test sample solution with a concentration of 0.3 mg/mL for oral administration. 100 μL of the test sample solution was volumed to 10 ng/mL with methanol, and a control sample of the same concentration was prepared. The concentrations of the test sample and control sample were detected by HPLC, and the accuracy was calculated.
SD rats were given a single oral administration of 3 mg/kg of test compound at a dose of 10 mL/kg. The rats were bled in femoral artery and ruptured in neck 0.25 h after administration. The liver and blood samples (anticoagulation with heparin sodium) were collected immediately, and placed on ice.
The homogenate was centrifuged (centrifugation conditions: 8000 rpm/min, 5 min, 4° C.). The supernatant was transferred and subjected to cryopreservation. The supernatant was thawed and centrifuged before injection, and the supernatant was collected and subjected to LC-MS/MS for analyzing the content of the compound in the supernatant sample.
The collected whole blood sample was placed on ice and centrifuged within 30 min (centrifugation conditions: 8000 rpm/min, 5 min, 4° C.). 100 μL of the upper layer of plasma was transferred, and precipitated with 300 μL of methanol. The mixture was shaken and centrifuged, and diluted with mobile phase. The supernatant was collected and subjected to LC-MS/MS for analyzing the content of the compound in the supernatant sample.

[2] = target: ACC2 (Homo sapiens (Human), UniProt O00763); test: ACC2 enzyme activity assay (ADP-Glo); type: biochemical; details: ACC2 enzyme 1.1 nM working solution, room temperature
Sequence of ACC2 (O00763 whole entry): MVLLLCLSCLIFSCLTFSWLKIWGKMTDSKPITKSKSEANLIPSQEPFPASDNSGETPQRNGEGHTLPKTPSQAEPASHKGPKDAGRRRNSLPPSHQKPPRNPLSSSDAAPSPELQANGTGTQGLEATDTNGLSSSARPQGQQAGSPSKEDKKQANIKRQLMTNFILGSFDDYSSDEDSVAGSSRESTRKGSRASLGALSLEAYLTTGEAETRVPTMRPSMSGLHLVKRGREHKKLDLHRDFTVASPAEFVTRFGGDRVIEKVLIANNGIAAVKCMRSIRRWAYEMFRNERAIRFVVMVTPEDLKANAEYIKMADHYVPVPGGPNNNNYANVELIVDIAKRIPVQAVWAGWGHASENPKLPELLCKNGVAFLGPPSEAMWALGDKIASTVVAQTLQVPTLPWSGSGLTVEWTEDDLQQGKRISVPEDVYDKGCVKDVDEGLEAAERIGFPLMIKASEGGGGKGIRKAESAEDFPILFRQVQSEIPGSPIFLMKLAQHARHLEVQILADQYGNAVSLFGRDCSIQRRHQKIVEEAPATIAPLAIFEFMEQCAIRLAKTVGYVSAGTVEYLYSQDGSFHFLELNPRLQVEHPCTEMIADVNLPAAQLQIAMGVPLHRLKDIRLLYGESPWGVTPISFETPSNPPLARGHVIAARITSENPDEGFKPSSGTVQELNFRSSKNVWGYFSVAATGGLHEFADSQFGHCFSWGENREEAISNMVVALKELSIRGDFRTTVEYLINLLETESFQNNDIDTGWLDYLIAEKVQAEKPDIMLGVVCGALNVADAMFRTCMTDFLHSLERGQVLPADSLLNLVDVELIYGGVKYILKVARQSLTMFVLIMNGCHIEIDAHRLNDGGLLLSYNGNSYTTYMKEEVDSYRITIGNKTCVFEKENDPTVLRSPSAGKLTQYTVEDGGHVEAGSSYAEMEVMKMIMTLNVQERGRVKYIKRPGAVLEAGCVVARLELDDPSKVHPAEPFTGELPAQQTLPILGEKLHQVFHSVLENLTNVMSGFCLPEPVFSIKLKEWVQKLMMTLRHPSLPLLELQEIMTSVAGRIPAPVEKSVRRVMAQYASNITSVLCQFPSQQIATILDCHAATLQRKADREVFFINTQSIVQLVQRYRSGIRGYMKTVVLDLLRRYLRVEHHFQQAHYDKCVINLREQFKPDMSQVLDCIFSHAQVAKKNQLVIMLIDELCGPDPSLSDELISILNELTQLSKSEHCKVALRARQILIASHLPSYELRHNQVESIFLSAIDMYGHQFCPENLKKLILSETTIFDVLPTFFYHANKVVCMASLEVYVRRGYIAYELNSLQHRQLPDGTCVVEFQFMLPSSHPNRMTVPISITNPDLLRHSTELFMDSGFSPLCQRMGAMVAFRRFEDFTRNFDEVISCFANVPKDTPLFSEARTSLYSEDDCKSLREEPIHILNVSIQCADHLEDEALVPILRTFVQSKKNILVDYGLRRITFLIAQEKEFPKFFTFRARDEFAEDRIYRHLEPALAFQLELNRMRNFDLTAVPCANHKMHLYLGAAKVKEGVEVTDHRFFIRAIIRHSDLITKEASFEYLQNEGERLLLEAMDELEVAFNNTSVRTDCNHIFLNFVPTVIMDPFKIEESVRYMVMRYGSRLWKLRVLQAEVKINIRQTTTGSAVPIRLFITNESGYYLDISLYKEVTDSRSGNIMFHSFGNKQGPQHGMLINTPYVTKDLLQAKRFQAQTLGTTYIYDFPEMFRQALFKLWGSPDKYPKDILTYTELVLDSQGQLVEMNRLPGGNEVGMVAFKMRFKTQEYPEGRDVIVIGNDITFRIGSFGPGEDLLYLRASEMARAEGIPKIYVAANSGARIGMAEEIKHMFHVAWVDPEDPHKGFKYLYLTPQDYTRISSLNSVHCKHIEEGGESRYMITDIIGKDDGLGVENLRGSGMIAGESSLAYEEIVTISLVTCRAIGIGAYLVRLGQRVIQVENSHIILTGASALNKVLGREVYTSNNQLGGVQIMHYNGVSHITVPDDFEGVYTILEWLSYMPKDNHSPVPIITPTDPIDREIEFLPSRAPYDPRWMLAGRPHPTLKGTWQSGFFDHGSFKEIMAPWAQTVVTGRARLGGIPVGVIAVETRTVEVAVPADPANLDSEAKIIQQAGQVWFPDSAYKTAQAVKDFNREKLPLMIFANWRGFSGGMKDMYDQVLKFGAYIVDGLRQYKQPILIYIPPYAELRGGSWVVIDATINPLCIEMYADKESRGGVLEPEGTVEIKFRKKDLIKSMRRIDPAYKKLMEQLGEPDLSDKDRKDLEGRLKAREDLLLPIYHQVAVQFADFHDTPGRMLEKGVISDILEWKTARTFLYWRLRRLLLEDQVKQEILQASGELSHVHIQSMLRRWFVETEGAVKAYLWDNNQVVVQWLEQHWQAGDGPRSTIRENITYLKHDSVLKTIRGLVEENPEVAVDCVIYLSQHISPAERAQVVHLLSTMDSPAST
Method: Compound preparation: the compounds of the present disclosure prepared in the above examples and the control compound were respectively formulated into 10 mM with DMSO for use.
Preparation of 1× reaction buffer (pH=7.4): HEPES stock solutions (1 M), MgCl2 (1 M), BRIJ-35 (10%), potassium citrate buffer (1 M), BSA (10 mg/mL) and DTT (500 mM) were formulated to enzyme reaction buffer containing HEPES (50 mM), MgCl2 (2 mM), BRIJ-35 (0.01%), potassium citrate buffer (2 mM), BSA (50 Gg/mL) and DTT (2 mM).
The mixture was incubated at room temperature for 15 min.
Negative control group: menstruum containing 5% DMSO; positive control group: menstruum containing 100 nM ND-630. The average values of each concentration and the positive and negative controls were calculated, and the standard deviation was calculated. […] The inhibition rate data was fitted by nonlinear regression equation to calculate IC50 of each compound. The nonlinear regression equation was Y=lowest value+(highest value−lowest value)/(1+10^((Log IC50−X)×HillSlope)), among which X is logarithm of the compound concentration and Y is inhibition percent (%).

[3] = test system: Col1A1 gene expression in TGF-β1-induced LX-2 cells; test: Inhibition of human hepatic stellate cells LX-2 activation in vitro (Col1A1 gene expression, real-time PCR); type: cell-based; details: TGFβ1 10 ng/mL, 24 h drug treatment, compound concentration of the tabulated value not stated (30, 10, 3 μM prepared)
Method: The compounds of the present disclosure prepared in the above examples and the control compound were respectively formulated into 60 mM with DMSO for use.
DMSO stock solution of the compounds of the examples of the present disclosure and the control compound were sequentially diluted with culture medium to 30 μM, 10 μM, and 3 μM. TGF-β1 was dissolved to […] with 10 mM citric acid buffer in the kit (PeproTech) according to the instructions, ready for use.
LX-2 cells were inoculated into a 6-well culture plate at a density of 2×10^5 cells/mL after cell passage. Each well contained 2 mL DMEM with 10% FBS. The cells were cultured at 37° C. in a 5% CO2 incubator, which was recorded as Day 1. After 24 h (Day 2), the cell confluence reached 70-80%, the old culture medium was discarded, and the serum-free DMEM was used to treat the cells as low serum starvation. The old culture medium was discarded at Day 3, and the culture medium or the culture medium containing different concentrations of the drug was added for continuing culture. There were control group (serum-free DMEM culture medium), TGFβ1 group, TGFβ1+ compound group. The TGFβ1 working concentration was 10 ng/mL. 24 h after the drug treatment (Day 4), the cell medium was discarded and the cells were washed once with precooled 1×PBS and then subjected to total RNA extraction.
2.3.1 Sample pretreatment: 1 mL of TransZOL Up reagent was added to each well of the 6-well plate, and the well plate was placed horizontally for a while to let the lysis buffer evenly spread on the cell surface and lyse the cells. The cells were blown with a pipette to make the cells completely detached. The lysate was transferred to a 2 mL RNase free centrifuge tube and repeatedly blown and sucked until no significant pieces in the lysate.
The extracted RNA was diluted to a concentration of 0.1 μg-0.5 μg (Total RNA ≤1 μg) based on the same mass. The total RNA in the reverse transcription system of each sample in the experiment was about 500 ng.
Two replicates were set for each sample, and the relative expression of the target gene was calculated by the program in the PCR machine.
The threshold of the Real Time PCR result was automatically set by the Real Time PCR detector system. The relative expression of the Col1A1 gene was calculated as follows. ΔCt (Col1A1 in drug treatment group)=Avg. Ct (Col1A1 in drug treatment group)−Avg. Ct (GAPDH in drug treatment group) ΔCt (Col1A1 in TGF group)=Avg. Ct (Col1A1 in TGF group)−Avg. Ct (GAPDH in TGF group) ΔCt (Col1A1 in Control group)=Avg. Ct (Col1A1 in Control group)−Avg. Ct (GAPDH in Control group) ΔΔCt=Average value of ΔCt (Col1A1 in TGF group/drug treatment group)−ΔCt (Col1A1 in Control group)
Formula for calculating the relative expression of Col1A1 gene: RQ=^2−ΔΔCt
Relative quantification results were obtained by automatically analysis of ABI 7500 real-time quantitative PCR machine.

Q: Which concentration at 0.25 h ([1]; liver, read-out: Concentration in Liver) does the source give for `COc1ccccc1[C@H](Cn1c(=O)n(C(C)(C)C(=O)O)c(=O)c2c(C)c(-c3ncco3)sc21)OC1CCOCC1` [ND-630, 2-[1-[2-(2-methoxyphenyl)-2-(oxecyclo-4-yloxy)ethyl]-5-methyl-6-(1,3-oxazol-2-yl)-2,4-dioxo-1H,2H,3H,4H-thieno[2,3-d]pyrimidin-3-yl]-2-methylpropanoic acid, reference compound] here?
A: Its concentration at 0.25 h is 6070 ng/g.

Q: What about the Kp at 0.25 h ([1]; liver/plasma, read-out: Liver/plasma distribution ratio) of the same compound?
A: Its Kp at 0.25 h is 41.8.

Q: What about the concentration at 0.25 h ([1]; plasma, read-out: Concentration in Plasma) of the same compound?
A: The concentration at 0.25 h was 0.145 µg/mL.

Q: And the IC50 [2]?
A: Its IC50 is 3.56 nM.

Q: What about the “Inhibition rate (%) of relative expression of the Col1A1 gene” value [3] of the same compound?
A: Its value is 42.06%.
